Test results published in patent US20160130311A1, “T CELL EPITOPES DERIVED FROM ALT A 1 OR ALT A 5 FOR THE TREATMENT OF ALTERNARIA ALTERNATA ALLERGY” (priority 2013, published 2016).
“Also recorded” adds a separate entry of the source. Like-named read-outs stand apart in the source and are kept apart here.

Experiments:
[1] = Peptide solubility in sterile pure water; assay type: physicochemical
Procedure: The theoretical average peptide hydrophilicity was calculated using the Hopp and Woods scale (28). For solubility determination, peptides were dissolved in sterile pure water at 50mg/ml (pH=7), mixed, centrifuged and the presence of a pellet indicated insolubility. Insoluble peptides were sequentially diluted and tested down to 2.5mg/ml or until solubility was observed. Peptides not fully dissolved at 2.5mg/ml were considered insoluble in this study.

[2] = system: T cells expanded for 14 days with allergen extract and IL-2; details: allergic population; cited from earlier work
[3] = system: PBMCs of Alternaria allergic patients and control subjects; test: IL-4 ELISPOT of PBMCs exposed to peptide; assay type: cell-based, human; details: for number of patients stimulated: IL-4 ELISPOT, cut-off >9 spot counts
Source text: Peripheral blood was obtained by venipuncture from Alternaria allergic patients and non-sensitized controls. Peripheral blood mononuclear cells (PBMCs) were isolated from heparinized blood by standard Ficoll density gradient centrifugation. PBMCs were washed with CTL (Cellular Technology Limited, Cleveland, Ohio, USA) wash medium containing RPMI-1640 with L-glutamine (Lonza, Basel, Switzerland) before being counted by haemocytometer using trypan blue stain (Sigma). PBMCs (10 million/ml) were resuspended in CTL-Cryo ABC serum-free freezing medium according to the manufacturer's protocol before being frozen overnight at −80° C. and transferred to and stored in liquid nitrogen until time of use.
Enzyme-linked immunospot assay (ELISPOT) analysis was performed utilizing 16 Alternaria patients and 11 controls. For an individual peptide the number of Alternaria patients tested ranged between 10-15 and the number of control subjects ranged between 7-9. Ten Alternaria patients were fully tested with all 22 peptides. For ELISPOT, the BD ELISPOT Human IL-4 Set (BD Biosciences, San Diego, Calif., USA) was used to analyze IL-4 production by human PBMCs. Plates were coated overnight at 4° C. with IL-4 capture antibody (BD Biosciences) and then washed 3 times with Dulbecco's Phosphate Buffer Saline (DPBS, Sigma). Plates were blocked with 1% BSA (Sigma) in PBS for 2 h at room temperature and washed 3 times with DPBS. Cryopreserved Alternaria patient and control subject PBMCs were thawed rapidly, washed, counted, and resuspended in CTL Test Medium supplemented with 2 mM L-glutamine (Sigma) and used at a concentration of 300,000 cells/well contained in 100 μl. […] The plates were dried and analyzed on the ImmunoSpot UV Core ELISPOT Plate Reader (Cellular Technology Limited).
The two-independent sample Wilcoxon rank sum test was used for statistical analysis of ELISPOT data (26). A one-sided control<patient p-value was determined except for peptides 7-21 and 143-157 where a one-sided patient >control p-value was calculated. […]
Two methods were evaluated to interpret the IL-4 ELISPOT spot count data. […]

[4] = biological target: DRB1*0101, 0301, 0401, 0701, 1101, 1301,1501 (Homo sapiens, UniProt P01903+P01911, A100R/D57E/F55L/F60I/F76Y/I96L/L162R/M171V/P40L/Q125E/R42F/V115G/Y59C); test: REVEAL Class II binding assay and Quick Check Stability Assay (MHC-peptide binding); details: 7 DRB1 alleles; stability index ≧1.0 considered positive for MHC binding
Procedure: The MHC restriction of peptides from ProPred prediction were evaluated using the REVEAL Class II binding assay and Quick Check Stability Assay performed by ProImmune (Oxford, United Kingdom). In the REVEAL cell free in vitro assay, the binding of a peptide to an HLA molecule is determined by its ability to stabilize a MHC class II-peptide complex. Each MHC class II-peptide binding was scored relative to a validated proprietary T cell epitope control peptide. The score was determined as the percentage of the signal generated by the test peptide versus the level for the positive control peptide and reflects the on-rate properties of peptide. The off-rate properties of the peptide were determined by the Quick Check Stability Assay which measured the amount of peptide bound at time zero and time 24 hours at 37° C. The two signals were used to estimate a half-life which was multiplied by the REVEAL score and divided by 100 to yield the combined stability index. A stability index ≧1.0 was considered positive for MHC binding.
To confirm ProPred predictions and to validate peptides for continued analysis using IL-4 ELISPOT, an in vitro MHC-peptide binding assay was used to measure binding of 22/25 15mers (excluding p3-17, 42-56, and 43-57) to the 7 DRB1 alleles which accounted for the majority of the ProPred predictions (Table II). […] High stringency binding prediction rates were accurate for alleles *0301 (none predicted) and *1501 (none predicted), while inaccurate with low stringency positive binding prediction rates of 0% (0/10) and 25% (1/4), respectively. Both alleles *0301 and *1501 had low false negative rates of 8% (1/12) and 6% (1/18), respectively. ProPred was inaccurate at both high and low stringency for the three remaining alleles with a 0% binding prediction rate for *0701 (0/9), *1101 (0/14) and *1301 (0/7) but also yielding 0% false negative rates at 0/13, 0/8 and 0/14, respectively. […]

[5] = sterile pure water pH=7, 50mg/ml diluted down to 2.5mg/ml, not fully dissolved at 2.5mg/ml = insoluble

Compound: H-EKDFVVQGVADAYIT-OH [p135-149:P135E]
- solubility in H2O [1]: insoluble

Compound: H-EADAYITLVTLPKSS-OH [p143-157:V143E]
- solubility in H2O [1]: soluble

Compound: H-GTYYNSLGFNIKATN-OH [p52-66]
- solubility in H2O [1, 5]: insoluble

Compound: H-ESTYYNSLGFNIKAT-OH [p51-65:G52S]
- solubility in H2O [1]: soluble

Compound: H-FTTIASLFAAAGLAA-OH [p3-17]
- solubility in H2O [1, 5]: insoluble

Compound: H-ETYYNSLGFNIKATN-OH [p52-66:G52E]
- solubility in H2O [1]: insoluble

Compound: CC[C@H](C)[C@H](N)C(=O)N[C@@H](C)C(=O)N[C@@H](CO)C(=O)N[C@@H](CC(C)C)C(=O)N[C@@H](Cc1ccccc1)C(=O)N[C@@H](C)C(=O)N[C@@H](C)C(=O)N[C@@H](C)C(=O)NCC(=O)N[C@@H](CC(C)C)C(=O)N[C@@H](C)C(=O)N[C@@H](C)C(=O)N[C@@H](C)C(=O)N[C@@H](C)C(=O)N1CCC[C@H]1C(=O)O [p6-20]
- solubility in H2O [1]: insoluble
- IL-5 and INF-γ ELISPOT result [2]: positive for IL-5 only

Compound: H-YNSLGFNIKATNGGT-OH [p55-69]
- solubility in H2O [1, 5]: insoluble

Compound: H-VNSLGFNIKATNGGT-OH [p55-69:Y55V]
- solubility in H2O [1]: insoluble

Compound: H-ENSLGFNIKATNGGT-OH [p55-69:Y55E]
- solubility in H2O [1]: soluble

Compound: CC[C@H](C)[C@H](NC(=O)[C@H](Cc1ccc(O)cc1)NC(=O)[C@H](C)NC(=O)[C@H](CC(=O)O)NC(=O)[C@H](C)NC(=O)[C@@H](N)C(C)C)C(=O)N[C@H](C(=O)N[C@@H](CC(C)C)C(=O)N[C@H](C(=O)N[C@H](C(=O)N[C@@H](CC(C)C)C(=O)N1CCC[C@H]1C(=O)N[C@@H](CCCCN)C(=O)N[C@@H](CO)C(=O)N[C@@H](CO)C(=O)O)[C@@H](C)O)C(C)C)[C@@H](C)O [p143-157]
- number of patients stimulated [3]: one
- solubility in H2O [1]: insoluble
- IL-5 and INF-γ ELISPOT result [2]: positive for IL-5 only

Compound: H-AAYLLLGLGGNTSPS-OH [p5-19]
- activity in Alternaria patients (ELISPOT) ([3]; Alt a 5 peptide, three Alternaria patients, methods as Example 1): active in all 3 patients

Compound: H-ANSLGFNIKATNGGT-OH [p55-69:Y55A]
- solubility in H2O [1]: soluble

Compound: H-EETYYNSLGFNIKAT-OH [p51-65:G52E]
- solubility in H2O [1]: insoluble

Compound: H-EGTYYNSLGFNIKAT-OH [p51-65]
- solubility in H2O [1, 5]: insoluble

Compound: H-PKDFVVQGVADAYIT-OH [p135-149]
- solubility in H2O [1]: insoluble

Compound: H-SADAYITLVTLPKSS-OH [p143-157:V143S]
- solubility in H2O [1]: soluble

Compound: H-EGDYVWKISEFYGRK-OH [p35-49]
- in vitro binding to DRB1 alleles [4]: non-binding; also recorded: no in vitro binding to any DRB1 allele

Compound: H-RSGLLLKQKVSDDIT-OH [p103-117]
- in vitro binding to DRB1 alleles [4]: non-binding; also recorded: no in vitro binding to any DRB1 allele

Compound: H-ASLFAAAGLAAAAPL-OH [p7-21]
- solubility in H2O [1, 5]: insoluble

Compound: H-LQFTTIASLFAAAGL-OH [p1-15]
- number of patients stimulated [3]: one
- solubility in H2O [1]: insoluble
- IL-5 and INF-γ ELISPOT result [2]: negative to both cytokines

Compound: H-SNSLGFNIKATNGGT-OH [p55-69:Y55S]
- solubility in H2O [1]: soluble

Compound: H-STYYNSLGFNIKATN-OH [p52-66:G52S]
- solubility in H2O [1]: soluble

Compound: H-EDDITYVATATLPNY-OH [p113-127:S113E]
- solubility in H2O [1]: insoluble

Compound: H-SGLLLKQKVSDDITY-OH [p104-118]
- in vitro binding to DRB1 alleles [4]: non-binding; also recorded: no in vitro binding to any DRB1 allele

Compound: H-AADAYITLVTLPKSS-OH [p143-157:V143A]
- solubility in H2O [1]: insoluble

Compound: H-SDDITYVATATLPNY-OH [p113-127]
- solubility in H2O [1, 5]: insoluble

Compound: H-SKDFVVQGVADAYIT-OH [p135-149:P135S]
- solubility in H2O [1]: insoluble
